Cc1coc2c1C(=O)C(=O)c1c-2ccc2c(C)cccc12
solubility (mole fraction)
Settings	278.15 K	283.15 K	288.15 K	293.15 K	298.15 K	303.15 K	308.15 K	313.15 K	318.15 K	323.15 K
in DMF	0.000919	0.00106	0.00125	0.00146	0.00169	0.00193	0.0022	0.00249	0.00288	0.00335
in acetone	0.00103	0.0012	0.0014	0.00164	0.00194	0.00221	0.00253	0.00287	0.00324	0.0036
in ethanol	6.4e-05	8.08e-05	9.82e-05	0.00012	0.000144	0.000167	0.000198	0.000233	0.000275	0.000332
in ethylene glycol	8.39e-05	9.79e-05	0.000114	0.000132	0.000152	0.000175	0.000201	0.000232	0.000269	0.000317
in isopropanol	0.00029	0.000334	0.000395	0.000456	0.000535	0.000626	0.000729	0.000849	0.00101	0.0012
in methanol	5.56e-05	6.11e-05	6.79e-05	7.64e-05	8.61e-05	9.8e-05	0.000111	0.00013	0.000154	0.000182
in n-butanol	0.000574	0.000636	0.000706	0.000793	0.000903	0.00103	0.00117	0.00135	0.00154	0.00178
in n-propanol	0.000448	0.00051	0.000575	0.00067	0.000756	0.000866	0.000987	0.00113	0.0013	0.00151
in water	5.28e-08	5.74e-08	6.23e-08	6.81e-08	7.47e-08	8.25e-08	9.26e-08	1.04e-07	1.17e-07	1.34e-07

— BigSolDB 2.1
